According to US7939548B2, “Certain chemical entities, compositions, and methods” (Cytokinetics, Inc., priority 2006, dated 2011):

Molecular target: T1, chicken gizzard smooth muscle myosin subfragment-1 chemically crosslinked to either cardiac or skeletal actin (Gallus gallus, UniProt P10587)
T1 construct: chicken gizzard smooth muscle myosin subfragment-1
Assay: Smooth muscle myosin ATPase dose response assay (pyruvate kinase/horseradish peroxidase/pyruvate oxidase-coupled)
Type: biochemical
Conditions: ATPase activity of crosslinked smooth muscle actomyosin (subfragment-1); amplex red fluorescence; 4 parameter fit; read-out: IC50 Arithmetic Mean
Procedure: Screening assays were performed using a pyruvate kinase and lactate dehydrogenase-coupled ATPase assay containing the following reagents: Potassium PIPES (50 mM), MgCl2 (3 mM), KCl (100 mM), ATP (0.15 mM), DTT (1 mM), BSA (0.1 mg/ml), NADH (0.5 mM), PEP (1.5 mM), pyruvate kinase (4 U/ml), lactate dehydrogenase (8 U/ml), and antifoam (50 ppm) (concentrations expressed are final assay concentrations). The pH was adjusted to 6.80 at 22 °C by addition of potassium hydroxide. Lead optimization assays were performed with a more sensitive pyruvate kinase/horseradish peroxidase/pyruvate oxidase-coupled ATPase assay containing the following reagents: Potassium PIPES (12 mM), MgCl2 (2 mM), KCl (100 mM), ATP (0.15 mM), BSA (0.05 mg/ml), potassium phosphate (2 mM), amplex red (0.1 mM), PEP (0.1 mM), pyruvate kinase (4 U/ml), horseradish peroxidase (0.5 U/ml), pyruvate oxidase (0.5 U/ml), and antifoam (50 ppm) (concentrations expressed are final assay concentrations). The pH was adjusted to 7.00 at 22 °C by addition of potassium hydroxide.
The protein components specific to this assay are chicken gizzard smooth muscle myosin subfragment-1 that has been chemically crosslinked to either cardiac or skeletal actin using an excess of 1-Ethyl-3-[3-dimethylaminopropyl]carbodiimide hydrochloride and N-hydroxysuccinimide. The exact concentration of the crosslinked smooth muscle myosin in the assay is determined empirically, by titration to achieve a desired rate of ATP hydrolysis. The concentration varies between protein preparations due to variations in the fraction of active molecules in each preparation.
Compound dose response assays are performed by first preparing a dilution series of test compound, each with an assay mixture containing potassium PIPES, MgCl2, KCl, ATP, BSA, potassium phosphate, amplex red, PEP, crosslinked smooth muscle actomyosin (subfragment-1), antifoam, and water. The assay is started by adding an equal volume of solution containing potassium Pipes, MgCl2, KCl, BSA, potassium phosphate, pyruvate kinase, horseradish peroxidase, pyruvate oxidase, antifoam, and water. ATP hydrolysis is monitored by measuring the fluorescence of amplex red (excitation at 480 nm, emission at 615 nm). The resulting dose response curve is fit by the 4 parameter equation y=Bottom+((Top-Bottom)/(1+((IC50/X)^Hill))). The IC50 is defined as the concentration at which ATPase activity is midway between the top and bottom of the dose response curve.

Row | IC50 [µM] | Compound
1 | 0.927 | COC/C=C/c1ccc(C(=O)NCc2cccnc2)c(NCCc2cccc(F)c2)n1 [(6-((1E)-3-methoxyprop-1-enyl)-2-{[2-(3-fluorophenyl)ethyl]amino}(3-pyridyl))-N-(3-pyridylmethyl)carboxamide]
2 | 0.302 | C/C=C/c1ccc(C(=O)NCc2cccnc2)c(NCCc2cccc(F)c2)n1 [(6-((1E)prop-1-enyl)-2-{[2-(3-fluorophenyl)ethyl]amino}(3-pyridyl))-N-(3-pyridylmethyl)carboxamide]
3 | 0.038 | C/C=C/c1ccc(C(=O)NCc2cccnc2CN)c(NCCc2cccc(F)c2)n1 [(6-((1E)prop-1-enyl)-2-{[2-(3-fluorophenyl)ethyl]amino}(3-pyridyl))-N-{[2-(aminomethyl)(3-pyridyl)]methyl}carboxamide]
4 | 0.78 | C/C=C/c1nc(NCCc2cccc(F)c2)c(C(=O)NCc2cccnc2)cc1Br [(6-((1E)prop-1-enyl)-5-bromo-2-{[2-(3-fluorophenyl)ethyl]amino}(3-pyridyl))-N-(3-pyridylmethyl)carboxamide]
5 | 0.361 | C/C=C/c1nc(NCCc2cccc(F)c2)c(C(=O)NCc2cccnc2)cc1C#N [(6-((1E)prop-1-enyl)-5-cyano-2-{[2-(3-fluorophenyl)ethyl]amino}(3-pyridyl))-N-(3-pyridylmethyl)carboxamide]
6 | 0.0805 | C/C=C/c1nc(NCCc2cccc(F)c2)c(C(=O)NCc2cccnc2CN)cc1F [(6-((1E)prop-1-enyl)-5-fluoro-2-{[2-(3-fluorophenyl)ethyl]amino}(3-pyridyl))-N-{[2-(aminomethyl)(3-pyridyl)]methyl}carboxamide]
7 | 10.5 | C/C=C(/C)c1ccc(C(=O)NCc2cccnc2)c(NCCc2cccc(F)c2)n1 [(6-((1Z)-1-methylprop-1-enyl)-2-{[2-(3-fluorophenyl)ethyl]amino}(3-pyridyl))-N-(3-pyridylmethyl)carboxamide]
8 | 4.92 | CN(C)c1ccc(C(=O)NCc2cccnc2)c(NCCc2cccc(F)c2)n1 [(6-(dimethylamino)-2-{[2-(3-fluorophenyl)ethyl]amino}(3-pyridyl))-N-(3-pyridylmethyl)carboxamide]
9 | 73 | CCOC(C)c1ccc(C(=O)NCc2cccnc2)c(NCCc2cccc(F)c2)n1 (stereo not drawn) [(6-(ethoxyethyl)-2-{[2-(3-fluorophenyl)ethyl]amino}(3-pyridyl))-N-(3-pyridylmethyl)carboxamide]
10 | 5.19 | CN(C)/C(=N/C#N)c1ccc(C(=O)NCc2cccnc2)c(NCCc2cccc(F)c2)n1 [(6-[(1E)-1-(dimethylamino)-2-cyano-2-azavinyl]-2-{[2-(3-fluorophenyl)ethyl]amino}(3-pyridyl))-N-(3-pyridylmethyl)carboxamide]
11 | 42.8 | NC(=O)CCCNc1ccc(C(=O)NCc2cccnc2)c(NCCc2cccc(F)c2)n1 [(6-[(3-carbamoylpropyl)amino]-2-{[2-(3-fluorophenyl)ethyl]amino}(3-pyridyl))-N-(3-pyridylmethyl)carboxamide]
12 | 6.74 | NC(=O)CCCCNc1ccc(C(=O)NCc2cccnc2)c(NCCc2cccc(F)c2)n1 [(6-[(4-carbamoylbutyl)amino]-2-{[2-(3-fluorophenyl)ethyl]amino}(3-pyridyl))-N-(3-pyridylmethyl)carboxamide]
13 | 0.231 | N#CNC(=N)c1ccc(C(=O)NCc2cccnc2)c(NCCc2cccc(F)c2)n1 [(6-[(cyanoamino)iminomethyl]-2-{[2-(3-fluorophenyl)ethyl]amino}(3-pyridyl))-N-(3-pyridylmethyl)carboxamide]
14 | 17.3 | CN(C)C(=N)c1ccc(C(=O)NCc2cccnc2)c(NCCc2cccc(F)c2)n1 [(6-[(dimethylamino)iminomethyl]-2-{[2-(3-fluorophenyl)ethyl]amino}(3-pyridyl))-N-(3-pyridylmethyl)carboxamide]
15 | 24.8 | CC(=O)c1ccc(C(=O)NCc2cccnc2)c(NCCc2cccc(F)c2)n1 [(6-acetyl-2-{[2-(3-fluorophenyl)ethyl]amino}(3-pyridyl))-N-(3-pyridylmethyl)carboxamide]
16 | 65.8 | N#Cc1ccc(C(=O)NCc2cccnc2)c(NCCc2cccc(F)c2)n1 [(6-cyano-2-{[2-(3-fluorophenyl)ethyl]amino}(3-pyridyl))-N-(3-pyridylmethyl)carboxamide]
17 | 53.4 | CC(=O)N(CCO)c1ccc(C(=O)NCc2cccnc2)c(NCCc2cccc(F)c2)n1 [N-(6-{[2-(3-fluorophenyl)ethyl]amino}-5-[N-(3-pyridylmethyl)carbamoyl](2-pyridyl))-N-(2-hydroxyethyl)acetamide]
18 | 33.5 | CC(=O)N(C)c1ccc(C(=O)NCc2cccnc2)c(NCCc2cccc(F)c2)n1 [N-(6-{[2-(3-fluorophenyl)ethyl]amino}-5-[N-(3-pyridylmethyl)carbamoyl](2-pyridyl))-N-methylacetamide]
19 | 9.72 | O=C(NCc1cccc(CN2C(=O)c3ccccc3C2=O)n1)c1cc(Br)cnc1NCCc1cccc(F)c1 [N-({6-[(1,3-dioxobenzo[c]azolin-2-yl)methyl](2-pyridyl)}methyl)(5-bromo-2-{[2-(3-fluorophenyl)ethyl]amino}(3-pyridyl))carboxamide]
20 | 2.69 | NCc1ncccc1CNC(=O)c1cc(F)cnc1NCCc1cccc(F)c1 [N-{[2-(aminomethyl)(3-pyridyl)]methyl}(5-fluoro-2-{[2-(3-fluorophenyl)ethyl]amino}(3-pyridyl))carboxamide]
21 | 17.7 | Cn1cc(-c2cnc(NCCc3cccc(F)c3)c(C(=O)NCc3cccc(CN)n3)c2)cn1 [N-{[6-(aminomethyl)(2-pyridyl)]methyl}(2-{[2-(3-fluorophenyl)ethyl]amino}-5-(1-methylpyrazol-4-yl)(3-pyridyl))carboxamide]
22 | 16 | NCc1cccc(CNC(=O)c2cc(-c3ccccn3)cnc2NCCc2cccc(F)c2)n1 [N-{[6-(aminomethyl)(2-pyridyl)]methyl}(2-{[2-(3-fluorophenyl)ethyl]amino}-5-(2-pyridyl)(3-pyridyl))carboxamide]
23 | 7.39 | NCc1cccc(CNC(=O)c2cc(-c3cccnc3)cnc2NCCc2cccc(F)c2)n1 [N-{[6-(aminomethyl)(2-pyridyl)]methyl}(2-{[2-(3-fluorophenyl)ethyl]amino}-5-(3-pyridyl)(3-pyridyl))carboxamide]
24 | 9.84 | NCc1cccc(CNC(=O)c2cc(-c3ccncc3)cnc2NCCc2cccc(F)c2)n1 [N-{[6-(aminomethyl)(2-pyridyl)]methyl}(2-{[2-(3-fluorophenyl)ethyl]amino}-5-(4-pyridyl)(3-pyridyl))carboxamide]
25 | 6.03 | N#Cc1ccccc1-c1cnc(NCCc2cccc(F)c2)c(C(=O)NCc2cccc(CN)n2)c1 [N-{[6-(aminomethyl)(2-pyridyl)]methyl}(5-(2-cyanophenyl)-2-{[2-(3-fluorophenyl)ethyl]amino}(3-pyridyl))carboxamide]
26 | 15 | NCc1cccc(CNC(=O)c2cc(Br)cnc2NCCc2cccc(F)c2)n1 [N-{[6-(aminomethyl)(2-pyridyl)]methyl}(5-bromo-2-{[2-(3-fluorophenyl)ethyl]amino}(3-pyridyl))carboxamide]

Row | Compound | IC50 [µM]
27 | C/C=C/c1nc(NCCc2cccc(F)c2)c(C(=O)NCc2cccnc2CNC(=O)OC(C)(C)C)cc1F [(6-((1E)prop-1-enyl)-5-fluoro-2-{[2-(3-fluorophenyl)ethyl]amino}(3-pyridyl))-N-[(2-{[(tert-butoxy)carbonylamino]methyl}(3-pyridyl))methyl]carboxamide] | 11.7
